Data on four compounds can be found in patent US4396625A, “Treatment of glaucoma or ocular hypertension and ophthalmic composition” (Sumitomo Chemical Company, Limited, priority 1980, dated 1983).

Molecules are shown by their SMILES. Structures can show the parent of a compound that is named as a salt.

Data set [1] is described as follows: Stability / precipitation of ophthalmic solution on storage. Format: physicochemical. Conditions: 40° C., 3 months. The method, then:
To a part of distilled water required, was added 500 mg of compound (I) hydrochloride and the mixture was stirred at room temperature to dissolve the active ingredient. Next, D-mannitol 5 g, glycine 500 mg and Benzalkonium chloride 5 mg were added in this order and dissolved in the same way. After adjusting pH of the solution to 5.5 with hydrochloric acid, the mixture was added with distilled water to make the total volume to 100 ml. The solution was filtered under sterile conditions.
The following ophthalmic composition was prepared in the same way as stated in Example 4, using 100 mg of compound (I) acetate in place of 500 mg of compound (I) hydrochloride.
To a part of the required distilled water, was added 250 mg of compound (I) maleate, and the mixture was heated to 30° C. and stirred to dissolve the active ingredient. To this solution, 4 g of D-manitol, 1 g of glycine and 5 mg of Benzalkonium chloride were added and dissolved in this order. After adjusting pH of the solution to 6.0 with hydrochloric acid, the solution was added with distilled water to make the volume to 100 ml, and thus obtained solution was filtered under sterile conditions.

Data set [2] relates to intra-ocular pressure of the eye. Put plainly: Intra-ocular pressure measurement after local (ophthalmic) administration in dogs. The class given is in vivo, dog (Beagle). Particulars: dog, 0.5 w/v %, one drop. The method, then: In the local administration tests, compound (I) was applied to one eye of healthy grown-up dog (male or female; body weight 10 to 14 kg; Beagle dog) being normal in sense of sight and other sensitive faculties and having no morphological abnormality in the eyes, and evaluated for the effect thereof.
The test ophthalmic composition was prepared according to the recipe of Example 4, so as to include 0.5 w/v % of compound (I) HCl salt.
(§1) One drop (about 0.04 ml) of the ophthalmic composition was applied to a conjunctival sac of one eye and a drop of physiologic saline was into the conjunctival sac of the other eye. Thus applied eyes were kept closed for 5 to 10 seconds to ensure the osmosis of the medicament administered. Intra-ocular pressure in the respective eye was measured by using an Alcon Pneumatonography, just before the treatment with said medicine, and 1 to 24 hours after said administration. At each time, one drop of 0.4% oxydibucaine HCl ophthalmic composition (Trade Mark: Benoxyl® 0.4%; Santen Seiyaku K.K.) was applied to and intra-ocular pressure was measured after 20 to 30 seconds thereafter.

For data set [3] the test system is unchanged. Briefly: Intra-ocular pressure measurement after ophthalmic administration in albino rabbits. Particulars: rabbit. The class given is in vivo. The method, then: as §1
Using the same procedure as stated in Example 1, compound (I) was evaluated with 12 albino rabbits (male; body weight 2 to 3 kg, native kind). As the test medicaments, aqueous 0.5 w/v % and 0.25 w/v % compound (I) HCl solutions prepared according to Example 4 were used, as well as physiologic saline control solution.

The next data set relates to rat. Briefly: Rat acute toxicity. The class given is in vivo. Conditions: acute toxicity.
The nature of the next data set: Rat acute toxicity. Particulars: in vivo. Format: in vivo.
In a further data set the test system is mouse. Put plainly: Mouse acute toxicity. The class given is in vivo. Conditions: acute toxicity.
Another data set is described as follows: Mouse acute toxicity. Format: in vivo. Conditions: in vivo.

On to `CC(C)(C)NCC(O)CSc1nc(-c2ccc(C(N)=O)s2)cs1` (centres unmarked) [compound (I) HCl], for which, in data set [1] (0.5 % (w/v), pH 5.5), the “stability / precipitation of ophthalmic solution” value (“stability / precipitation” below) was “very stable and no precipitation was observed”. The “Intra-ocular pressure (mean ± standard error)” value in data set [2] (1 hour later) is given as 20.0 ± 0.9 mm Hg; in data set [2] (3 hours later), 16.6 ± 1.0 mm Hg; in data set [2] (5 hours later), 15.4 ± 0.9 mm Hg; in data set [2] (7 hours later), 16.0 ± 1.3 mm Hg; in data set [2] (9 hours later), 17.6 ± 1.2 mm Hg; in data set [2] (12 hours later), 20.4 ± 0.7 mm Hg. Moreover, the “Intra-ocular pressure (mean ± standard error)” value in data set [2] (24 hours later) worked out at 20.6 ± 0.8 mm Hg; in data set [2] (before administration) it was 20.8 ± 0.9 mm Hg; in data set [3] (0.25 w/v %, 0.5 hour later), 20.7 ± 0.7 mm Hg; in data set [3] (0.25 w/v %, 1 hour later) it was 20.2 ± 0.6 mm Hg; in data set [3] (0.25 w/v %, 2 hours later), 19.8 ± 0.5 mm Hg; in data set [3] (0.25 w/v %, 3 hours later), 20.1 ± 0.6 mm Hg. Also, the “Intra-ocular pressure (mean ± standard error)” value is listed as 22.1 ± 0.6 mm Hg in data set [3] (0.25 w/v %, 5 hours later); 22.9 ± 0.8 mm Hg in data set [3] (0.25 w/v %, 7 hours later); 21.0 ± 0.7 mm Hg in data set [3] (0.25 w/v %, 9 hours later); 22.2 ± 0.6 mm Hg in data set [3] (0.25 w/v %, 24 hours later); 21.8 ± 0.5 mm Hg in data set [3] (0.25 w/v %, before administration); 21.1 ± 0.8 mm Hg in data set [3] (0.5 w/v %, 0.5 hour later). The “Intra-ocular pressure (mean ± standard error)” value in data set [3] (0.5 w/v %, 1 hour later) is recorded as 18.9 ± 0.9 mm Hg; in data set [3] (0.5 w/v %, 2 hours later) it was 18.5 ± 0.9 mm Hg; in data set [3] (0.5 w/v %, 3 hours later), 18.2 ± 0.8 mm Hg; in data set [3] (0.5 w/v %, 5 hours later), 21.6 ± 0.8 mm Hg; in data set [3] (0.5 w/v %, 7 hours later), 22.8 ± 0.8 mm Hg; in data set [3] (0.5 w/v %, 9 hours later), 22.2 ± 0.8 mm Hg. In addition, the “Intra-ocular pressure (mean ± standard error)” value in data set [3] (0.5 w/v %, 24 hours later) turned out to be 22.5 ± 0.8 mm Hg; in data set [3] (0.5 w/v %, before administration) it was 22.5 ± 0.6 mm Hg.
With `CC(C)(C)NCC(O)CSc1nc(-c2ccc(C(N)=O)s2)cs1` (centres unmarked) [compound (I) acetate], in data set [1] (0.1 % (w/v)), the “stability / precipitation” value was “very stable and no precipitation was observed”.
`CC(C)(C)NCC(O)CSc1nc(-c2ccc(C(N)=O)s2)cs1` (centres unmarked) [compound (I) maleate]: in data set [1] (0.25 % (w/v), pH 6.0), the “stability / precipitation” value is “very stable and no precipitation was observed”.
Consider `CC(C)(C)NCC(O)CSc1nc(-c2ccc(C(N)=O)s2)cs1` (centres unmarked) [compound (I), 2-(3-tert.-butylamino-2-hydroxypropylthio)-4-(5-carbamoyl-2-thienyl)-thiazole], for which the toxic signs entry in the data set with rat and in the data set with mouse was “no animals showed particular troublesome symptoms” throughout. Besides, the LD50 in “Rat acute toxicity” (ip, intraperitoneal) was 340 mg/kg; in “Rat acute toxicity” (oral), above 3000 mg/kg; in the data set “Mouse acute toxicity” (ip, intraperitoneal), 500 mg/kg; in “Mouse acute toxicity” (oral), above 5000 mg/kg.

The LD50 is the dose expected to kill half of the subjects tested.
